# Measured values from ChEMBL document CHEMBL1201862, “PubChem BioAssay data set” (2004).
# Active and inactive are the calls of the source.
# Key:
# [1] = target: T1, Calpain-2 catalytic subunit (Sus scrofa, UniProt P43367); assay: pig calpain II inhibitor potency, dose response, biochemical, fluorogenic peptide substrate (AID 1420); format: functional
# T1 sequence (P43367 whole entry): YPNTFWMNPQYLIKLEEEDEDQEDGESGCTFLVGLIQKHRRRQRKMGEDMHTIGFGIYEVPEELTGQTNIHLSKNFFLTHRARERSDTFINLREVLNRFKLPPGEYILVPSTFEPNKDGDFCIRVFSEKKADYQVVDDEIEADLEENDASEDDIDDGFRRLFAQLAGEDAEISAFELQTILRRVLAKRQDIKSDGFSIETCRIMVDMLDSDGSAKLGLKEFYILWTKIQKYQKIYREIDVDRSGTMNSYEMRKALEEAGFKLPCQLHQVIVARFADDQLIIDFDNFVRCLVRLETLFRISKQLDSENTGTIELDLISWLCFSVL
# [2] = microbe, parasite or virus in culture; format: functional; conditions: Mycobacterium tuberculosis
# cells = format: functional
# [3] = HEp-2 cell cytotoxicity, dose response, cytotoxicity control for RSV inhibitor project, HTS (AID 2410); format: functional; conditions: human respiratory syncytial virus
# [4] = inhibitors of firefly luciferase expression or activity, dose response, H4 neuroglioma cells, luminescence (AID 1990); format: functional, cell-based
# [5] = Luminescence Cell-Based Dose Response HTS to Identify Inhibitors of 5'UTR Stem-Loop Driven Prion Protein mRNA Translation in H4 Neuroglioblastoma Cells. [Related pubchem assays: 1827 (Project Summary), 1813 (Primary HTS)]; format: functional
# [6] = inhibitors of SNCA 5'UTR-driven reporter translation, confirmation, H4 neuroglioma cells, luminescence (AID 1988); format: functional, cell-based
# [7] = target: T2, Heat shock factor protein 1 (Mus musculus, UniProt P38532); assay: inhibition of MG132-induced HSE-luciferase signal, confirmation, cell-based, NIH3T3, luminescence, dose retest (AID 2382); format: functional;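 further: NIH3T3 fibroblasts with HSF1-driven luciferase reporter stressed by proteasome inhibitor MG132; luminescence from HSF1-driven luciferase expression after 8 hours of MG132 stress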
# T2 sequence (P38532 whole entry): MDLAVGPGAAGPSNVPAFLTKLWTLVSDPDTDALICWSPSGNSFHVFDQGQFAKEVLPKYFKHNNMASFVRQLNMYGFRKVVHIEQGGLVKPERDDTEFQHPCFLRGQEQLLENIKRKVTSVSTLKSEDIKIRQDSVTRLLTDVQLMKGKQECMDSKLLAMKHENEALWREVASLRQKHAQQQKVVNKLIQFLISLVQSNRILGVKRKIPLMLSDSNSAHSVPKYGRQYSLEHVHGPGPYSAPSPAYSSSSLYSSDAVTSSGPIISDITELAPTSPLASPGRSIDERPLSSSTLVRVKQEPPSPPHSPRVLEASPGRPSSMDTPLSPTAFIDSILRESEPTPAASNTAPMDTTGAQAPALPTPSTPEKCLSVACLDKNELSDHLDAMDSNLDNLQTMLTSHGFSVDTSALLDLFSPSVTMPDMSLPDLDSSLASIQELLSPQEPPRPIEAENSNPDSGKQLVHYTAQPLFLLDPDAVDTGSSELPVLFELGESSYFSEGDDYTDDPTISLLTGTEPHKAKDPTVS
# HEK293 = assay: inhibitors of LMP1-driven NF-kB reporter, dose response, cell-based, HEK293, luciferase, cherry-pick (AID 588343); format: functional; conditions: Homo sapiens
# BJ [8] = assay: cytotoxicity toward BJ-TERT fibroblasts, dose response, cell-based, RAS-independent, luminescence (AID 1933); format: functional; conditions: Homo sapiens
# BJ [9] = assay: cells; format: functional, cell-based; conditions: Homo sapiens
# BJ [10] = assay: cytotoxicity toward BJ-TERT-LT-ST fibroblasts, dose response, cell-based, RAS-independent, luminescence (AID 1935); format: functional; conditions: Homo sapiens;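 further: BJ fibroblasts immortalized with TERT plus LT and ST oncogenes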
# [11] = cytotoxicity toward DRD oncogenic fibroblasts, dose response, cell-based, non-viral oncogenic, luminescence (AID 1934); format: functional; conditions: Homo sapiens
# [12] = inhibitors of intracellular T. cruzi replication, confirmation, NIH3T3 host cells, beta-gal luminescence (AID 2044); format: functional, cell-based;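 further: intracellular parasites grown in NIH/3T3 mouse fibroblasts as host cells; luminescent beta-galactosidase reporter signal from transgenic T. cruzi replicating inside host cells; inhibitors lower the luminescence signal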
# [13] = cytotoxicity toward NIH3T3 fibroblasts, dose response, counter-screen, cell-based, ATP luminescence, mouse fibroblasts (AID 2010); format: functional;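 further: cells exposed to compound for about 90 hours before reading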
# [14] = target: T3, Rac GTPase-activating protein 1 (Homo sapiens, UniProt Q9H0H5); assay: MgcRacGAP GTPase-activating activity inhibitors, confirmation, biochemical, ADP Hunter fluorescence, primary and confirmatory (AID 624330); format: functional
# T3 sequence (Q9H0H5 whole entry): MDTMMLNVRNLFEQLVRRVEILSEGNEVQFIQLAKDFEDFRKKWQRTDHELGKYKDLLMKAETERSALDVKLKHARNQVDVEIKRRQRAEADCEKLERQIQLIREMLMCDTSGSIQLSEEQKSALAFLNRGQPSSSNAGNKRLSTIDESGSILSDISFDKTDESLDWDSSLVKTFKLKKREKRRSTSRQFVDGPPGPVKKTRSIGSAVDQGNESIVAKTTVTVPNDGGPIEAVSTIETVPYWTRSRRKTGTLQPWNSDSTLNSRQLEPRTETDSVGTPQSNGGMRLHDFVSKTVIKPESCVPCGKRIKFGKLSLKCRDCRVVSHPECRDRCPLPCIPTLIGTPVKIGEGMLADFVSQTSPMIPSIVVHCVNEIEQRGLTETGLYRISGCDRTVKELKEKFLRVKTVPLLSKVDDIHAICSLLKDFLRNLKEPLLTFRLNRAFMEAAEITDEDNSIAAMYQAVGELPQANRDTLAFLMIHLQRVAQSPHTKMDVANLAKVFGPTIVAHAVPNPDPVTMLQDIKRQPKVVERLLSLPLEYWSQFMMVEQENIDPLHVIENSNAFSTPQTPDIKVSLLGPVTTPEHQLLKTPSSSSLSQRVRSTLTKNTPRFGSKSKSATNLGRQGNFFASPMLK
# [15] = Shn3 3'UTR reporter inhibitors, dose response, cell-based, Clone20 osteoblasts, firefly luciferase, cherry-picked (AID 624132); format: functional;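 further: firefly luciferase luminescence from reporter carrying the Shn3 3'UTR in osteoblasts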
# [16] = HepG2 cell cytotoxicity, dose response, cytotoxicity control for Shn3 inhibitor project, CellTiter-Glo, cherry-picked (AID 624134); format: functional, cell-based
# [17] = control 3'UTR Renilla luciferase suppression, dose response, counter-screen for Shn3 inhibitor project, cell-based, Clone20-Shn3RL, cherry-picked (AID 624133); format: functional
# [18] = Luminescence Cell-Based Dose Response HTS to Identify Activators of Luciferase Translation or Activity in H4 […] Cells. [Related pubchem assays: 1829 (Project Summary), 1814 (Primary HTS)]; format: functional
# H4 = assay: Luminescence Cell-Based Dose Response HTS to Identify Activators of 5'UTR Stem-Loop Driven Prion Protein mRNA Translation in H4 Neuroglioblastoma Cells. [Related pubchem assays: 1829 (Project Summary), 1814 (Primary HTS)]; format: functional; conditions: Homo sapiens
# [19] = target: Luciferin 4-monooxygenase (Photinus pyralis, UniProt P08659); assay: firefly luciferase enzyme inhibitors, dose response, biochemical, luminescence (AID 1891)
# [20] = Luminescence Cell-Based Dose Confirmation HTS to Identify Inhibitors of Platelet Dense Granule Release. [Related pubchem assays: 1663 (Primary HTS), 1678 (Summary of Project)]; format: functional
# Protein skinhead-1 = target: T4, Protein skinhead-1 (Caenorhabditis elegans, UniProt P34707); format: functional
# T4 sequence (P34707 whole entry): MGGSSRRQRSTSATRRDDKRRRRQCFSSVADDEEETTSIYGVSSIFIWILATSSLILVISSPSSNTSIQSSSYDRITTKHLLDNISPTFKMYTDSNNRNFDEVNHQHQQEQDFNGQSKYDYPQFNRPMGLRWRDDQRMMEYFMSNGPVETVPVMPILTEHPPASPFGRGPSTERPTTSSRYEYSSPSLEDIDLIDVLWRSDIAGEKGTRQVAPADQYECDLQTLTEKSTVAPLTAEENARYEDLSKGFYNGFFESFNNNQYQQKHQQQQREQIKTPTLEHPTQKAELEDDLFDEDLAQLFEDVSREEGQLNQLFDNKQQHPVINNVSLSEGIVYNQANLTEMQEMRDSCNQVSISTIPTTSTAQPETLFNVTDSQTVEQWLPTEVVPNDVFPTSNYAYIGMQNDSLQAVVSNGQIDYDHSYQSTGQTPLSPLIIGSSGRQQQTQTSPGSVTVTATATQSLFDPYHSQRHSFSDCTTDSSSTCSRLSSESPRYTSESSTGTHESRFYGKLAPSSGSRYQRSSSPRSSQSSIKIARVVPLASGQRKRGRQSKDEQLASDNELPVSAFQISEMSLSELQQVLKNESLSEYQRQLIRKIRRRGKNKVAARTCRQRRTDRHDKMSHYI
# [21] = target: T5, Ubiquitin-conjugating enzyme E2 N (Homo sapiens, UniProt P61088); format: functional;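 further: Dose-response confirmation in a TR-FRET assay detecting UBC13-driven polyubiquitin chain formation, inhibition measured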
# T5 sequence (P61088 whole entry): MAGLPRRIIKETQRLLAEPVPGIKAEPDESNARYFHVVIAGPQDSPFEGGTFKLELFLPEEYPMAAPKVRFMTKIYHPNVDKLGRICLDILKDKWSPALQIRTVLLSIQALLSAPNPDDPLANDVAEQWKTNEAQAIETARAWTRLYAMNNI
# [22] = target: FAD-linked sulfhydryl oxidase ALR (Homo sapiens, UniProt P55789); assay: inhibitors of human ALR sulfhydryl oxidase, dose response, biochemical, H2O2 detection, luminescence, cherry-pick (AID 493248)
# FAD-linked sulfhydryl oxidase ALR, sequence (P55789 whole entry): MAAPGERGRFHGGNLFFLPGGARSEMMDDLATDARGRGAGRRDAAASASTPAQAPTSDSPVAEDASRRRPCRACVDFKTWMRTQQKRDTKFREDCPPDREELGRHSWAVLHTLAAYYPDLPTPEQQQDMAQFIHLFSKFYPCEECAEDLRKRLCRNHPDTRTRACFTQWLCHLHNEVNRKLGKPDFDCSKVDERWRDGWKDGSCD
# Luciferin 4-monooxygenase, sequence (P08659 whole entry): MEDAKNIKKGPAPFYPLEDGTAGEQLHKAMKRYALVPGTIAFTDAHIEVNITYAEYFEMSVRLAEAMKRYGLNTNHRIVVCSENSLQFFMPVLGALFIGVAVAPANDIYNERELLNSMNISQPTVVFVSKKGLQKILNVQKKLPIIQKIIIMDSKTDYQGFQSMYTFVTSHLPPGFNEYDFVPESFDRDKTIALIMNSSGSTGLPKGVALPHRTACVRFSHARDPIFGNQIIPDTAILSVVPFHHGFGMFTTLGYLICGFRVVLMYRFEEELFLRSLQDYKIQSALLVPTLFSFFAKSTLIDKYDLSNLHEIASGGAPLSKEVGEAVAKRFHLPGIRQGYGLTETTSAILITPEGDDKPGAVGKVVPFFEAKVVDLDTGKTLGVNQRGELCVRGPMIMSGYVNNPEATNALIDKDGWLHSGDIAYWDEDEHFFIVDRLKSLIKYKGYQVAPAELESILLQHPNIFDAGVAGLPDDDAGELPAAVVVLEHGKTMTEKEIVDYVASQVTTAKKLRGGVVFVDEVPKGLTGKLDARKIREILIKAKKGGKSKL
compound,measurement,setting,value
Cc1cc(NC(=O)c2ccc3c(c2)C(=O)N(CCC(C)C)C3=O)no1,IC50,[1],17.2 µM (not active)
COc1ccc(-c2csc3ncnc(N4CCN(c5ccccc5OC)CC4)c23)cc1,CC50,[2],> 40 µM (active)
COc1ccccc1C1=Nn2c(nnc2C2CCCCC2)SC1,IC50,cells,12.1 µM (active)
CCOC(=O)c1cnc2c(Cl)ccc(Cl)c2c1O,IC50,[1],17.3 µM (not active)
CN(C1=NC(=O)C(CC(=O)Nc2ccc(Br)cc2)S1)c1ccc(O)cc1 (stereo not drawn),CC50,[3],36 µM (active)
same,EC50,[4],66.4 µM (active)
same,EC50,[5],> 120 µM (not active)
same,EC50,[6],23.8 µM (active)
COc1cc2cc(C(=O)Nc3ccc4c(c3)OCCO4)[nH]c2cc1OC,EC50,[7],0.907 µM (active)
same,AC50,HEK293,0.595 µM (active)
COCCSc1nnc(NC(=O)CCS(=O)(=O)Cc2ccccc2)s1,IC50,cells,45.5 µM (active)
O=C(c1ccc(F)cc1)N1CCN2C(=O)c3ccccc3C12c1ccc(Cl)cc1 (stereo not drawn),CC50,[3],29 µM (active)
CCCN(C#N)c1nc(NCC)nc(NC(C)C)n1,IC50,[1],> 50 µM (not active)
COc1cc(OC)cc(C(=O)c2c(C)c(C#N)c3ccccn23)c1,EC50,[4],15 µM (active)
same,EC50,BJ [8],2.54 µM (active)
same,EC50,[5],> 120 µM (not active)
same,EC50,[6],2.6 µM (active)
same,EC50,BJ [9],0.769 µM (active)
same,EC50,BJ [10],1.46 µM (inconclusive)
same,EC50,[11],1.49 µM (active)
CCOc1ccc(-c2cnc(NCc3cccc4ccccc34)n2CCOC)cc1,EC50,[7],> 195 µM (not active)
same,EC50,[12],979 nM (active)
same,CC50,[2],12.2 µM (active)
same,EC50,[13],> 60 µM (not active)
O=C(OCC#CCSc1nnc(-c2ccccc2)o1)c1ccco1,IC50,cells,21.1 µM (active)
Cc1cc([N+](=O)[O-])nn1CCCC(=O)Nc1cc(Oc2ccccc2)cc([N+](=O)[O-])c1,IC50,[1],5.32 µM (not active)
CC(O)CNc1nc2ccccc2n1-c1ncnc2sc3c(c12)CCC3 (stereo not drawn),CC50,[2],29.6 µM (active)
CCN(CCCNC(=O)CCn1c(=O)[nH]c2ccsc2c1=O)c1ccccc1,EC50,[7],> 195 µM (not active)
same,IC50,[1],< 0.4 µM (not active)
CN(C)c1ccc(NC(=O)CCN2C(=O)c3cccc([N+](=O)[O-])c3C2=O)cc1,IC50,[14],86.5 µM (active)
COc1ccccc1N=C(S)N(Cc1ccco1)Cc1cc2ccc(C)c(C)c2nc1O,EC50,BJ [8],0.717 µM (inconclusive)
same,EC50,BJ [9],20.2 µM (inconclusive)
same,EC50,BJ [10],0.525 µM (active)
same,EC50,[11],0.685 µM (active)
O=C(Nc1ccc(Cl)cc1)c1ccc(-n2cncn2)c([N+](=O)[O-])c1,CC50,[3],20.6 µM (active)
COc1ccc(-n2nc3c(N4CCC(C(=O)NCC(C)c5ccccc5)CC4)nnc(C)c3c2C)cc1 (stereo not drawn),AC50,[15],3.25 µM (active)
same,AC50,[16],30.2 µM (active)
same,AC50,[17],36.7 µM (active)
O=C(Cc1cccs1)Nc1ccc(-c2nc3ccccc3[nH]2)cc1,EC50,[18],1.51 µM (active)
same,EC50,H4,236 nM (active)
CN(C)c1ccc(/C=C2/NC(=O)NC2=O)cc1,IC50,[14],51.2 µM (active)
COc1cc(N(C)C)c([N+](=O)[O-])cc1C(=O)N1CCN(Cc2ccccc2)CC1,AC50,HEK293,12.8 µM (active)
CC(C)CCNc1nc2c(c(=O)n(Cc3cccc(F)c3)c(=O)n2C)n1C,IC50,[1],44.7 µM (not active)
O=C(/C=C/Nc1ccc(Br)cc1F)c1ccccc1,EC50,[5],9.38 µM (active)
same,EC50,[6],4.27 µM (active)
same,EC50,[19],542 nM (active)
same,EC50,[20],4.16 µM (active)
same,AC50,HEK293,1.65 µM (active)
same,IC50,Protein skinhead-1,> 100 µM (inactive)
COc1ccc(Nc2nc(N)c(C(=O)c3ccc(F)cc3)s2)cc1,EC50,BJ [8],2.89 µM (inconclusive)
same,EC50,BJ [9],54.4 µM (inconclusive)
same,EC50,BJ [10],37.5 µM (active)
same,EC50,[11],2.8 µM (inconclusive)
O=C(C(=O)N1CCOCC1)c1cn(Cc2ccc(F)cc2)c2ccccc12,IC50,[21],> 20 µM (inactive)
COC(=O)c1ccc(NCc2c(O)ccc(O)c2Br)cc1Cl,IC50,[14],57.6 µM (active)
CC1(C)Nc2ccccc2N(CC(=O)N2CCCCC2)C1=O,AC50,[22],1.96 µM (active)
Cc1cccc(/N=C2/Sc3nc4c(C)c(C)ccc4cc3CN2CCN2CCOCC2)c1,CC50,[3],16.1 µM (active)
Oc1ccccc1/C=N/NC(=S)NC1CC2CC1C1C=CCC21 (stereo not drawn),CC50,[2],13.9 µM (active)
Cc1ccc(-c2cc(C(=O)N/N=C/C=C/c3ccco3)c3ccccc3n2)cc1C,AC50,HEK293,1.63 µM (active)
CC1CCCC/C1=N\NC(=S)NCCc1ccccc1 (stereo not drawn),CC50,[2],> 40 µM (active)
O=C(CCN1CCN(C/C=C/c2ccccc2)CC1)Nc1ccc(Cl)cc1,IC50,cells,34.6 µM (active)
O=C(Nc1ccccc1)N1CCN(c2nc(-c3ccccc3)ns2)CC1,IC50,[21],> 20 µM (inactive)
O=c1c2sccc2[nH]c(=S)n1-c1ccccc1,IC50,[21],> 20 µM (inactive)
